Measurements from PMC6421704 (Journal of Experimental & Clinical Cancer Research : CR, 2019).
Entries after “also recorded” stand apart in the source; their conditions may differ.

Experiments:
[1] = molecular target: FGFR1 (Homo sapiens, UniProt P11362); assay: In vitro kinase activity assay (HDB Kinase Selectivity Profiling); type: biochemical; details: Kinase Glo Plus assay format
[2] = test system: HepG2 cells; assay: HepG2 cell proliferation under HGF migration conditions (MTS assay); type: cell-based, human
Method: (§1) All experiments were conducted three times.
Figure S2. […] Cell proliferation was anaylzed with MTS assay.

[3] = test system: MDCK cells; assay: MDCK cell proliferation (MTS assay); type: cell-based, Canine; details: scattering conditions
Method: as §1
Figure S1. […] Cell proliferation was anaylzed with MTS assay.

[4] = test system: Ba/F3-Tpr-Met cells; assay: cells; details: Mus musculus, read-out: IC50 of IL-3-independent growth
[5] = test system: HepG2 cells; assay: BDNF-induced HepG2 cell migration; details: HepG2, BDNF 50 ng/ml, 24 h
Method: (§3) For the migration assay, 2×10^5 cells were seeded on 8µm polycarbonate membrane (Transwell; Costar). […] After 24h migration cells were counted.

[6] = molecular target: Ephb1 (Homo sapiens, UniProt P54762); assay: In vitro kinase activity assay (Caliper assay format); type: biochemical
[7] = test system: MDCK cells; assay: HGF-stimulated MDCK cell scattering; details: Indo5 pretreated 2 h, HGF 20 ng/ml 12 h, dose-dependent
Method: Cells were plated into 96-well plates (1.5 × 10^3 cells/well) and grown until small colonies appeared. […] After 24h incubation, cells were fixed with 90% methanol for 30min at room temperature and stained by 1% crystal violet. Scattered clones were photographed.

[8] = test system: MHCC97L; assay: cells; details: Homo sapiens, 72 h, read-out: IC50 (μM) ± SD
Method: as §1

[9] = test system: MHCC97H; assay: cells; details: Homo sapiens, 72 h, read-out: IC50 (μM) ± SD
Method: as §1

[10] = Half-life in plasma; type: in vitro ADME; details: data not shown
[11] = test system: SK-N-SH xenograft; assay: SK-N-SH xenograft mice; type: in vivo
Method: (§2) Tumor growth was measured using vernier calipers, and tumor volume (mm^3) was calculated as (L × W × H)/2. When the mean tumor volume reached 200 mm^3, the mice were randomized into four groups and treatment was initiated. Indo5 in DMSO was injected intraperitoneally into the mice once daily at the indicated doses. Tumor volume were recorded every 3 days until the study was terminated. The mice were sacrificed after 21 days of treatment. Solid tumors were excised and weighed, and the inhibition rate was calculated as […].

[12] = test system: TrkA signaling; assay: NGF-induced TrkA signaling in SK-N-SH cells (Western blot); details: 1 μM Indo5, pretreated 2 h, NGF 500 ng/ml 5 min
Method: Data are shown as the mean ± S.D. and are representative of three independent experiments. ** p < 0.01, *** p < 0.001.
For western blots, cells were lysed with M-PER? Mammalian Protein Extraction Reagent (Pierce, Rockford, IL, USA). Then, western blot analysis was performed according to standard procedures. Chemiluminescent detection was conducted using supersignal substrate (Pierce) according to the manufacturer’s specifications.

[13] = test system: HepG2 cell line tumor xenografts; assay: HepG2 xenograft tumor model in nude mice; type: in vivo; details: Indo5 16 mg/kg, intraperitoneally once daily, 21 days
Method: First, 2 × 10^6 HepG2 cells, 4 × 10^6 MHCC 97H cells, 4 × 10^6MHCC 97 L cells, 2 × 10^6 A549 cells, or 5 × 10^6 SMMC-7721 cells in a volume of 200 μl PBS were inoculated subcutaneously in the right flank of each mouse. Tumor growth was measured using vernier calipers, and tumor volume (mm^3) was calculated as (L × W × H)/2. When the mean tumor volume reached 200 mm^3, the mice were randomized into four groups and treatment was initiated. […] Tumor volume were recorded every 3 days until the study was terminated. The mice were sacrificed after 21 days of treatment.
The inhibition rate was calculated.
The tumor weights were measured, and the inhibition rate was calculated. Data are shown as the mean ± S.D. and are representative of three independent experiments. **p < 0.01, ***p < 0.001

[14] = test system: Ba/F3-Tpr-Met cells; details: 0.5 μM Indo5
[15] = molecular target: C-KIT(v654A) (Homo sapiens, UniProt P10721, V654A); assay: In vitro kinase activity assay (Caliper assay format); type: biochemical
[16] = test system: VEGF receptor-mediated signaling pathway; assay: VEGF receptor-mediated signaling pathway in A549 cells (Western blot); details: A549, Indo5 pretreated 2 h, 100 ng/ml VEGF 5 min
[17] = test system: mouse hepatocytes; assay: HGF-induced proliferation of mouse hepatocytes (MTS assay)
[18] = test system: EGF receptor-mediated signaling pathway; assay: EGF receptor-mediated signaling pathway in A549 cells (Western blot); details: A549, Indo5 pretreated 2 h, 100 ng/ml EGF 5 min
[19] = test system: A549; assay: Inhibition of cell proliferation (MTS assay); type: cell-based; details: Homo sapiens, A549, c-Met^hiTrkB^hi, 72 h
Method: as §1

[20] = test system: L02; assay: Inhibition of cell proliferation (MTS assay); type: cell-based; details: Homo sapiens, L02, c-Met^hiTrkB^lo (non-cancerous cells), 72 h
Method: as §1

[21] = test system: NCI-H460; assay: Inhibition of cell proliferation (MTS assay); type: cell-based; details: Homo sapiens, NCI-H460, c-Met^loTrkB^lo, 72 h
Method: as §1

[22] = test system: BEL-7402; assay: Inhibition of cell proliferation (MTS assay); type: cell-based; details: Homo sapiens, BEL-7402, c-Met^loTrkB^lo, 72 h
Method: as §1

[23] = test system: SK-N-SH; assay: Inhibition of cell proliferation (MTS assay); type: cell-based; details: Homo sapiens, c-Met^loTrkB^hi, 72 h
Method: as §1

[24] = test system: SMMC-7721; assay: Inhibition of cell proliferation (MTS assay); type: cell-based; details: Homo sapiens, SMMC-7721, c-Met^loTrkB^hi, 72 h
Method: as §1

[25] = test system: HCC-LM3; assay: Inhibition of cell proliferation (MTS assay); type: cell-based; details: Homo sapiens, HCCLM3, HCC-LM3, c-Met^hiTrkB^hi, 72 h
Method: as §1

[26] = test system: MRC-5; assay: Inhibition of cell proliferation (MTS assay); type: cell-based; details: Homo sapiens, MRC5, MRC-5, c-Met^loTrkB^lo (non-cancerous cells), 72 h
Method: as §1

[27] = molecular target: PDGFRα (Homo sapiens, UniProt P16234); assay: In vitro kinase activity assay (HDB Kinase Selectivity Profiling); type: biochemical; details: Kinase Glo Plus assay format
[28] = molecular target: EPHA1 (Homo sapiens, UniProt P21709); assay: as above; type: biochemical; details: Kinase Glo Plus assay format
[29] = molecular target: FLT1 (Homo sapiens, UniProt P17948); assay: as above; type: biochemical; details: Kinase Glo Plus assay format
[30] = test system: SMMC-7721 xenograft; assay: SMMC-7721 xenograft mice; type: in vivo
Method: as §2

[31] = Cytotoxicity in non-cancerous cells; type: cell-based; details: human
[32] = test system: orthotopic tumors; assay: Histological examination of liver from mice bearing orthotopic tumors (H&E); type: in vivo; details: 48 mg/kg Indo5
Source text: Figure S8. H&E staining of livers from mice bearing orthotopic tumors treated with the vehicle or Indo5.

[33] = test system: HepG2 cells; assay: HGF-induced HepG2 cell migration (Transwell); details: HepG2, HGF 20 ng/ml, 24 h, dose-dependent
Method: as §3

[34] = Body weight in HepG2 xenograft nude mice model; type: in vivo; details: Indo5 vs control groups
[35] = Body weight in liver orthotopic mouse model; type: in vivo, mice; details: liver orthotopic mouse model, Indo5 up to highest dose (48 mg/kg); 48 mg/kg
[36] = test system: HCC metastasis in lung; assay: Lung metastasis in mice bearing MHCC97H orthotopic tumors (H&E); type: in vivo; details: Indo5 treatment

Sequence of FLT1 (P17948 27-1338): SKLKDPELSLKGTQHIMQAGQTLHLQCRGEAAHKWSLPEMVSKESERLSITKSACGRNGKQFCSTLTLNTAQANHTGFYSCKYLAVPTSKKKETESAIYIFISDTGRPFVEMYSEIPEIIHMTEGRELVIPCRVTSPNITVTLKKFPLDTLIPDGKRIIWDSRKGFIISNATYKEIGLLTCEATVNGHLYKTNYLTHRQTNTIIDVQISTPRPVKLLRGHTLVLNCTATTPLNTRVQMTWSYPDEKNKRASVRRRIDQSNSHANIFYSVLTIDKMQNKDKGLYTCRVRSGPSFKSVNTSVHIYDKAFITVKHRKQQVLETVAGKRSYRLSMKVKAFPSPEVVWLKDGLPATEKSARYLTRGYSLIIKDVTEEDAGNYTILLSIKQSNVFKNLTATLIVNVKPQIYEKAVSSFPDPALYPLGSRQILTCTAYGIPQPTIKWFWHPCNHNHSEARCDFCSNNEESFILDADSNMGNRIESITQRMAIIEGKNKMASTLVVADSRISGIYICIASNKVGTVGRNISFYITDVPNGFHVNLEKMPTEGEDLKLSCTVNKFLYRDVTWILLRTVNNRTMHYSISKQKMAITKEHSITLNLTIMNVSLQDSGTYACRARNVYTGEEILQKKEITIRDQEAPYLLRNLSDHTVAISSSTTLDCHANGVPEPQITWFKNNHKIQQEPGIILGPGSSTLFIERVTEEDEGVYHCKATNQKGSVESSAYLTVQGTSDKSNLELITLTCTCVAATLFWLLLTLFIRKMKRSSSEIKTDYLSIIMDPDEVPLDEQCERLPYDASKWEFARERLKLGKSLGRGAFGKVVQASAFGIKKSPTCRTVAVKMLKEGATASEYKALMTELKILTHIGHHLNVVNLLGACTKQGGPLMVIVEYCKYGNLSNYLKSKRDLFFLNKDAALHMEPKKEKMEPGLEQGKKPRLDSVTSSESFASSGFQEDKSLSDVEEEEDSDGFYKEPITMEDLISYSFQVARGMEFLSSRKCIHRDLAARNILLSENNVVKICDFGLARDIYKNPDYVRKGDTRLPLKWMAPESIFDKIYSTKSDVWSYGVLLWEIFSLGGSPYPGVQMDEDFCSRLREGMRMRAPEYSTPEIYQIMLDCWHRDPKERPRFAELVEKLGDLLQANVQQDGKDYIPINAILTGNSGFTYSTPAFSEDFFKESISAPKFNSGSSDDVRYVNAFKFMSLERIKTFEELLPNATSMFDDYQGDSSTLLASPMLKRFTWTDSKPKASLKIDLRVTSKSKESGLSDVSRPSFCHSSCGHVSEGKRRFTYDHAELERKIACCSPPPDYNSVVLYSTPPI
Sequence of Ephb1 (P54762 18-984): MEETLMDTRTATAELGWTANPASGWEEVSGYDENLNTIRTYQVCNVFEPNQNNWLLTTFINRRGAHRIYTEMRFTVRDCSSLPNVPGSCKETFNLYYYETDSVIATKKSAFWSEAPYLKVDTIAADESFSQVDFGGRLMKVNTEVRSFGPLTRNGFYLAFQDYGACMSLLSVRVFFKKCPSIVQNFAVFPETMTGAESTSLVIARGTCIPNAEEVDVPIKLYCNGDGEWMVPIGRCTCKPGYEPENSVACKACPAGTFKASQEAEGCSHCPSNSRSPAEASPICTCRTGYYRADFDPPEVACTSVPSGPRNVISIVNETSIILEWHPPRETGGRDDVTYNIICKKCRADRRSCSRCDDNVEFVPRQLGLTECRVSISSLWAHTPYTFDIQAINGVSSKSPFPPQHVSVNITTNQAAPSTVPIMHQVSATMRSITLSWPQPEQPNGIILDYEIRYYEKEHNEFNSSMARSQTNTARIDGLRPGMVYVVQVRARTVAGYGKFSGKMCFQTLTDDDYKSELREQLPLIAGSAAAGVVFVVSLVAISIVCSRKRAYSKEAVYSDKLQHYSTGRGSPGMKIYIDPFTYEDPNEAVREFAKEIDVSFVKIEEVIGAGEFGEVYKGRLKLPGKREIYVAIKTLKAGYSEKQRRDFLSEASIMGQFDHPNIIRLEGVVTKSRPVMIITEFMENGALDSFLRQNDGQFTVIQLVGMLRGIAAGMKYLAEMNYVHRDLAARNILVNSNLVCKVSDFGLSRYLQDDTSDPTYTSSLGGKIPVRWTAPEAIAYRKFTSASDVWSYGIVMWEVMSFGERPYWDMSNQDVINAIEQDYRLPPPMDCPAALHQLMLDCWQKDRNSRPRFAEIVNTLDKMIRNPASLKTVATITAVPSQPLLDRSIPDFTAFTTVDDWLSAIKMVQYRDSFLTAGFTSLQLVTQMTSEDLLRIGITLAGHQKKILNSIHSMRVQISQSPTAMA
Sequence of FGFR1 (P11362 22-822): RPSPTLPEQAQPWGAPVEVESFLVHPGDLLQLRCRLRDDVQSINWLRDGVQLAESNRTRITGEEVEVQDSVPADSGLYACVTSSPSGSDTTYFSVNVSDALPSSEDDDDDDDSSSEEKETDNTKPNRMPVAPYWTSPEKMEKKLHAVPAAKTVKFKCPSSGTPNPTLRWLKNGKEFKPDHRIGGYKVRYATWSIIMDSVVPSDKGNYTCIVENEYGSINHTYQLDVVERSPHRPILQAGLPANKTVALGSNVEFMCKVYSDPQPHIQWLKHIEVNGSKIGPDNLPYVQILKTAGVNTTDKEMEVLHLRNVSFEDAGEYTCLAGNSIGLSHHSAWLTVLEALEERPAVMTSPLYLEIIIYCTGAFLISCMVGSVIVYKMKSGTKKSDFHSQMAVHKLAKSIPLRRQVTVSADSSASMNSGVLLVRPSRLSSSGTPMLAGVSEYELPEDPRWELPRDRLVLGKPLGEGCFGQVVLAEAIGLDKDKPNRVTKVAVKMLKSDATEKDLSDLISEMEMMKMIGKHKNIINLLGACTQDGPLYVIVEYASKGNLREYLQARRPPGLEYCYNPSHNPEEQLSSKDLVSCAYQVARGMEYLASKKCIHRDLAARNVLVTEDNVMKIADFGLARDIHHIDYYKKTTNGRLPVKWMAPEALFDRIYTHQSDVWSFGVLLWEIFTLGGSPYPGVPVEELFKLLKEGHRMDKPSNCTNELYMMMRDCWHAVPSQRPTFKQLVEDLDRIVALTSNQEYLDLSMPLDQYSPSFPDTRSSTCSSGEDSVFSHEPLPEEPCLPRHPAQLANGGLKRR
Sequence of PDGFRα (P16234 24-1089): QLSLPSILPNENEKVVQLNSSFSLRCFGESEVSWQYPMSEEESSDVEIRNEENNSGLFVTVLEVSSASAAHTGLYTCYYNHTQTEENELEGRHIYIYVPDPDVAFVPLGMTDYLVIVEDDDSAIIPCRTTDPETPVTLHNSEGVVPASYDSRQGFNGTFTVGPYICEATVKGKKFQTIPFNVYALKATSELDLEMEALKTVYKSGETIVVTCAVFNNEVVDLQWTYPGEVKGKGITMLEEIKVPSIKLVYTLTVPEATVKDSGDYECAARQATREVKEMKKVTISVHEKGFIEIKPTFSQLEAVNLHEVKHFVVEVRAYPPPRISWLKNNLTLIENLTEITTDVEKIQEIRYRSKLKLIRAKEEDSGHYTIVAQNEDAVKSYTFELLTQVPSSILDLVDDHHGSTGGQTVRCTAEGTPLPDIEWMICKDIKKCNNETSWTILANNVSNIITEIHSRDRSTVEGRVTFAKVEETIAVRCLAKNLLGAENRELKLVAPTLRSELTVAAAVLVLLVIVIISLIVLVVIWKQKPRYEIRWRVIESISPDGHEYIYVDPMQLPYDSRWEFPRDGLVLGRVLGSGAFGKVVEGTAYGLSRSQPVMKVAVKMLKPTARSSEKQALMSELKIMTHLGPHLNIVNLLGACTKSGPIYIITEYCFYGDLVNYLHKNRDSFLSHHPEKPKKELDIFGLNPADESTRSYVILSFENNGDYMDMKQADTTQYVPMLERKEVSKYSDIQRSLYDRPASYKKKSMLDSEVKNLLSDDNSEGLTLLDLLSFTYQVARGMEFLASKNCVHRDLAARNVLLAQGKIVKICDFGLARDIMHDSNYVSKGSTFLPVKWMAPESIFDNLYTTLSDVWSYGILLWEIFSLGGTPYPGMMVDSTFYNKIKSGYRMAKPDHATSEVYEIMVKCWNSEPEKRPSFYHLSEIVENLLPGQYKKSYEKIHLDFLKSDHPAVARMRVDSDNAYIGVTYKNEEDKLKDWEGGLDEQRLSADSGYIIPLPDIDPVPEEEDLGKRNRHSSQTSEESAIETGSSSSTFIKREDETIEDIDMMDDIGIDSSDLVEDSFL
Sequence of C-KIT(v654A) (P10721 26-976 V654A): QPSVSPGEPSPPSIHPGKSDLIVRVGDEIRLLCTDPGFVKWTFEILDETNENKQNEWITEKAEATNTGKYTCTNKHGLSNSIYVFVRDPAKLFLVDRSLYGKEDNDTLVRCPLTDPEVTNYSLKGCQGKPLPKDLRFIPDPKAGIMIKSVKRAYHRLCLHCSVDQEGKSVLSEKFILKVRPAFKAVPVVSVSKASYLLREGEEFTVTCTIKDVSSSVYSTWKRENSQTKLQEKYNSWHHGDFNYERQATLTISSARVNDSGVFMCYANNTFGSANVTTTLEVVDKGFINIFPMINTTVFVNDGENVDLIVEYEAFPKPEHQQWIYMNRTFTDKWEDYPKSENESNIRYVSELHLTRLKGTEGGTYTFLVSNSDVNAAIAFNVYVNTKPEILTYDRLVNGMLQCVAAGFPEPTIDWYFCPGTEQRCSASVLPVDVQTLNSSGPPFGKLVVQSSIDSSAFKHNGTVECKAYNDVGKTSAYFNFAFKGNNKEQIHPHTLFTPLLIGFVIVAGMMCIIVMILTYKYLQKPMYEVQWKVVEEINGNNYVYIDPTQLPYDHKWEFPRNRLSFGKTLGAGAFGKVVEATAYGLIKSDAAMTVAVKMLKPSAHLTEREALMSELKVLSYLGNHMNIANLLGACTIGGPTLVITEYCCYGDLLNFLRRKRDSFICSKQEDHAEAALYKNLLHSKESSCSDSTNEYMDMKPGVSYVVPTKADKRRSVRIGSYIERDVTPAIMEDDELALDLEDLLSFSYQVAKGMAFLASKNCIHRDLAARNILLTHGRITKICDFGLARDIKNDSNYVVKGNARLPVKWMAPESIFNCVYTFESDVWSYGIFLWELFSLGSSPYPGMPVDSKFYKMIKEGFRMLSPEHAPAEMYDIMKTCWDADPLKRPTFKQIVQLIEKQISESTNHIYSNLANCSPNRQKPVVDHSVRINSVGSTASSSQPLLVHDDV

Q: For `Cc1ccccc1NS(=O)(=O)c1ccc2c(c1)/C(=C/c1nc3ccccc3[nH]1)C(=O)N2` [Indo5, 3-(1H-benzimidazol-2-methylene)-5-(2-methylphenylaminosulfo)-2-indolone], which IC50 [1] is on record?
A: Its IC50 is greater than 10 µM.

Q: What about the “effect on cell proliferation” value [2] of the same compound?
A: Its value is “weak inhibitory effect”.

Q: And the “effect on cell proliferation” value [3]?
A: Its value is “No obvious effect”.

Q: What about the IC50 [4] of the same compound?
A: The IC50 was 0.618 µM.

Q: And the BDNF-induced cell migration [5]?
A: Its BDNF-induced cell migration is “suppressed”.

Q: And the IC50 [6]?
A: Its IC50 is greater than 10 µM.

Q: And the HGF-stimulated cell scattering [7]?
A: The HGF-stimulated cell scattering was “blocked”.

Q: What about the IC50 [8] of the same compound?
A: Its IC50 is 1.28 ± 0.016 µM.

Q: And the IC50 [9]?
A: The IC50 was 1.11 ± 0.018 µM.

Q: What about the half-life [10] of the same compound?
A: Its half-life is 5 min.

Q: And the xenograft tumor growth [11]?
A: Its xenograft tumor growth is “dose-dependent inhibitory effect”.

Q: And the “NGF-induced TrkA signaling” value [12]?
A: The value was “almost completely inhibited”.

Q: What about the “inhibition rate (tumor weight)” value [13] of the same compound?
A: Its value is 65.2%.

Q: And the cell apoptosis [14]?
A: The cell apoptosis was “markedly induced cell apoptosis”.

Q: And the IC50 [15]?
A: The IC50 was greater than 10 µM.

Q: What about the “activation of VEGF receptor-mediated signaling pathway” value [16] of the same compound?
A: Its value is “no effect”.

Q: And the cytotoxicity ([17]; 0.5 μM Indo5, 72 h, data not shown)?
A: Its cytotoxicity is “no cytotoxicity was observed”.

Q: And the HGF-induced cell proliferation ([17]; mouse hepatocytes, HGF 20 ng/ml 48 h, MTS)?
A: Its HGF-induced cell proliferation is “dose-dependently inhibited”.

Q: What about the “activation of EGF receptor-mediated signaling pathway” value [18] of the same compound?
A: Its value is “no effect”.

Q: And the IC50 [19]?
A: Its IC50 is 1.62 ± 0.008 µM.

Q: What about the IC50 [20] of the same compound?
A: The IC50 was 32.52 ± 0.075 µM.

Q: And the IC50 [21]?
A: Its IC50 is 9.185 ± 0.035 µM.

Q: What about the IC50 [22] of the same compound?
A: Its IC50 is 5.605 ± 0.017 µM.

Q: What about the IC50 [23] of the same compound?
A: Its IC50 is 2.982 ± 0.019 µM.

Q: And the IC50 [24]?
A: Its IC50 is 3.598 ± 0.022 µM.

Q: What about the IC50 [25] of the same compound?
A: Its IC50 is 1.873 ± 0.012 µM.

Q: And the IC50 [26]?
A: The IC50 was greater than 100 µM.

Q: What about the IC50 [27] of the same compound?
A: Its IC50 is greater than 10 µM.

Q: And the IC50 [28]?
A: Its IC50 is greater than 10 µM.

Q: And the IC50 [29]?
A: Its IC50 is greater than 10 µM.

Q: What about the xenograft tumor growth [30] of the same compound?
A: The xenograft tumor growth was “dose-dependent inhibitory effect”.

Q: What about the IC50 [31] of the same compound?
A: The IC50 was greater than 30 µM.

Q: And the “tumor cells in liver tissue (histological examination)” value [32]?
A: The value was “no obvious tumor cells”.

Q: What about the HGF-induced cell migration [33] of the same compound?
A: Its HGF-induced cell migration is “significantly suppressed”.

Q: What about the mouse body weights [34] of the same compound?
A: The mouse body weights was “almost unchanged”.

Q: And the body weight change [35]?
A: The body weight change was “no obvious weight changes; also recorded: not associated with loss of body weight”.

Q: What about the “HCC metastasis in lung” value [36] of the same compound?
A: Its value is “dramatic decrease”.
